This note sets out measurements from patent publication US5002948A, “3-[4-[4-substituted-1-piperazinyl]-1-butyl]-1H-2,3-dihydroindoles” (H. Lundbeck A/S, priority 1988, dated 1991).

Format in all cases: in vivo, Male Wistar rats
For test [1], the target named is T1, 5-HT1A (Rattus norvegicus, UniProt P19327).
T1 sequence (P19327 1-422): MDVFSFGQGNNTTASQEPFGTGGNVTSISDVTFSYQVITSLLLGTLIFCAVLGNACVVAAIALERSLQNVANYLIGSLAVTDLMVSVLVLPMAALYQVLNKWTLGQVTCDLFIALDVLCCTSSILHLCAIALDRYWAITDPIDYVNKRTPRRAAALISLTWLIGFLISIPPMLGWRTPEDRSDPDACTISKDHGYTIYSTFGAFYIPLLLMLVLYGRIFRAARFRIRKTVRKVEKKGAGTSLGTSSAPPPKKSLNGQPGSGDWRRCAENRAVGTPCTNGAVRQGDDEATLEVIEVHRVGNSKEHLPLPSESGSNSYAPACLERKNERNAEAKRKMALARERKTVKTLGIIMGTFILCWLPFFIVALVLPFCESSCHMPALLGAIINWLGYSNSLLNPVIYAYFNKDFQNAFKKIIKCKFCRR
Nature of the test: Antagonism of the discriminative stimulus properties induced by 8-OHDPAT in rats. Conditions: s.c. before 8-OHDPAT, rats trained at 0.4 mg/kg i.p., inhibition of drug responding; for ED50: rat, sc, read-out: ED50, 8-OH DPAT cue antagonism; for ED50, 8-OH DPAT cue antagonism: 0.4 mg/kg. Details: from tissue; host or cells: whole living animal, male Wistar rats, s.c. dosing. The protocol:
ANTAGONISM OF THE DISCRIMINATIVE STIMULUS PROPERTIES INDUCED BY 8-OHDPAT IN RATS.
This test model is used to determine the antagonist effects of a test compound on 5-HT1A receptors in vivo. A related method is described by Tricklebank, M. D., J. Neill, E. J. Kidd and J. R. Fozard, Eur. J. Pharmacol. 133, 47-56, 1987; Arnt. J., Pharmacology & Toxicology 64, 165-172, 1989.
Male Wistar rats are trained to discriminate between 8-OHDPAT (0.4 mg/kg, i.p., 15 min. pretreatment) and physiological saline in operant chambers equipped with two response levers. Between the levers a dipper is placed, where water rewards (0.1 ml) are presented. The rats are water deprived for at least 24 h and work in a fixed ratio (FR) schedule (final FR=32).
Following 8-OHDPAT administration responding is reinforced only on a designated (drug) lever, whereas responding on the opposite lever has no consequences. Following saline administration responding is reinforced on the lever opposite to the drug lever. Drug and saline trials alternate randomly between training days, although the same treatment is given maximally at 3 consecutive days. The level of discrimination occuracy is expressed as the per cent drug responses and is calculated as the number of correct responses×100 divided by the sum of the correct and incorrect responses before the first reward. When stable occuracy (mean correct responding=90 per cent; individual rats at least 75 per cent correct responding) is obtained test sessions are included between training days. Test compound is injected s.c. at appropriate time before 8-OHDPAT and the test begins 15 min after 8-OHDPAT injection. The test trial is terminated when a total of 32 responses are made on either lever or when 20 min have elapsed. No reward is given and the rats have free access to water for 20-30 min after the test. The effects are expressed as per cent inhibition of drug responding. Only results from rats making at least 10 responses on one lever are included in data analysis. Furthermore, only test sessions in which at least half of the rats respond are included.
The per cent inhibition of drug response obtained for each dose of test compound is used to calculate ED50 values by log-probit analysis.

Test [2] concerns the target T1, 5-HT1A. Nature of the test: Generalization to discriminative stimulus properties induced by 8-OHDPAT in rats (agonism). Conditions: usually 30 or 45 min before test, substituted for 8-OHDPAT, per cent drug response; for ED50: rat, sc, read-out: ED50, 8-OH DPAT cue agonism. Details: from tissue; host or cells: whole living animal, male Wistar rats, s.c. dosing. From the text: GENERALIZATION TO DISCRIMINATIVE STIMULUS PROPERTIES INDUCED BY 8-OHDPAT IN RATS.
This test model is used to determine the agonist effects of a test compound on 5-HT1A receptors in vivo. A related method is described by Tricklebank, M. D., J. Neill, E. J. Kidd and J. R. Fozard, Eur. J. Pharmacol. 133, 37-56, 1987; Arnt, J., Pharmacology & Toxicology 64, 165-172, 1989.
The procedure is the same as for the antagonism test mentioned above, except that the test compound is substituted for 8-OHDPAT and injected s.c. usually 30 minutes or 45 minutes respectively before beginning of the test.
The per cent drug response obtained for each dose of test compound is used to calculate ED50 values by log-probit analysis.

The target in test [3] is T1, 5-HT1A. Nature of the test: Inhibition of 5-methoxy-N,N-dimethyltryptamine (5-MeODMT) induced 5-HT syndrome in rats. On the set-up: Male Wistar rats (Mol:Wist) weighing 170-240 g are used; from tissue; host or cells: whole living animal, male Wistar rats (Mol:Wist), s.c. dosing. Conditions: 30 min before 5-MeODMT 5 mg/kg s.c., per cent inhibition of piano playing syndrome; for ED50: rat, sc. From the text:
INHIBITION OF 5-METHOXY-N,N-[…] INDUCED 5-HT SYNDROME IN RATS
The so-called 5-HT syndrome is a characteristic behaviour pattern which is induced by 5-HT agonists with effects on 5-HT, possibly 5-HT1A receptors, although lack of specific antagonists make it difficult to evaluate specificity (Smith, L. M. and S. J. Peroutka, Pharmacol. Biochem. & Behaviour 24, 1513-1519, 1986; Tricklebank, M. et al., Eur. J. Pharmacol. 117, 15-24, 1985).
Male Wistar rats (Mol:Wist) weighing 170-240 g are used. Test substrate is injected subcutaneously 30 min. before 5-methoxy-N,N-dimethyltryptamine 5 mg/kg, s.c. Four rats are used for each dose. A control group pretreated with saline is included each test day. Ten, 15 and 20 min later the rats are observed for presence of serotonin (5-HT) syndrome: (1) forepaw treading ("piano playing"), (2) head weaving and (3) hindleg abduction. Further, flat motility is scored. Each part of the syndrome is scored as follows: marked effect (score 2), weak syndrome (score 1) and no effect (score 0). The scores of the three observation times are added. Thus the maximum obtainable score for four rats is 24. The effect of the test substance is expressed as per cent inhibition relative to the control group.
The per cent inhibition of the piano playing syndrome is used as the response, and ED50 values are calculated by log-prohibit analysis.

Usually ED50 stands for the dose at which the effect has come halfway, by size or by number of responders.

As for `COc1ccccc1N1CCN(CCCCC2CNc3ccccc32)CC1` (stereo not drawn) [Compound 3a, 3-[4-[4-(2-methoxyphenyl)-1-piperazinyl]-1-butyl]-1H-2,3-dihydroindole], the ED50 in test [1] is 7.2 µmol/kg; in test [2], above 9.2 µmol/kg; in test [3] it was 1.9 µmol/kg.

In the case of `COc1ccccc1N1CCN(CCCCC2CNc3ccccc32)CC1` (single isomer, unassigned; (+)) [Compound 7a, (+)-3-[4-[4-(2-methoxyphenyl)-1-piperazinyl]-1-butyl]-1H-2,3-dihydroindole], in test [1], the “ED50, 8-OH DPAT cue antagonism” value amounted to 1.0 µmol/kg. For the same molecule, the ED50 in test [2] is above 6.8 µmol/kg; in test [3] it was 2.1 µmol/kg.

Regarding `COc1ccccc1N1CCN(CCCCC2CNc3ccccc32)CC1` (single isomer, unassigned; (-)) [Compound 7b, (-)-3-[4-[4-(2-methoxyphenyl)-1-piperazinyl]-1-butyl]-1H-2,3-dihydroindole], the “ED50, 8-OH DPAT cue antagonism” value in test [1] was above 3.4 µmol/kg. Besides, the “ED50, 8-OH DPAT cue agonism” value in test [2] (s.c.) is above 3.4 µmol/kg. Further, the “ED50, inhibition of 5-MeODMT induced 5-HT syndrome” value in test [3] (s.c.) amounted to 1.3 µmol/kg.

Consider `c1ccc2c(c1)NCC2CCCCN1CCN(c2cccc3c2OCCO3)CC1` (stereo not drawn) [Compound 3j, 3-[4-[4-(1,4-benzodioxan-5-yl)-1-piperazinyl]-1-butyl]-1H-2,3-dihydroindole], for which the ED50 in test [1] was 8.8 µmol/kg; in test [2], above 4.4 µmol/kg; in test [3] it was 3.1 µmol/kg.

As for `c1ccc2c(c1)NCC2CCCCN1CCN(c2cccc3c2OCC3)CC1` (stereo not drawn) [Compound 3i, 3-[4-[4-(2,3-dihydro-7-benzofuranyl)-1-piperazinyl]-1-butyl]-1H-2,3-dihydroindole], the ED50 in test [1] was above 9 µmol/kg; in test [2], 2.7 µmol/kg; in test [3] it was 4 µmol/kg.

As to `CCOc1ccccc1N1CCN(CCCCC2CNc3ccccc32)CC1` (stereo not drawn) [Compound 3c, 3-[4-[4-(2-ethoxyphenyl)-1-piperazinyl]-1-butyl]-1H-2,3-dihydroindole], the figures for the ED50 in test [1], in test [2] and in test [3] were 4.8 µmol/kg, above 26 µmol/kg and 0.48 µmol/kg, respectively.
